According to patent publication US20050197350A1, “Novel quinoline, tetrahydroquinazoline, and pyrimidine derivatives and methods of treatment related to the use thereof” (TAISHO PHARMACEUTICAL CO., LTD., priority 2003, published 2005):

system: MCH receptors; experiment: MCH receptor activity class (method not given); settings: class by percent of control at 10^-7 M or IC50

Compound	class
CCCCc1ccc(NC(=S)N[C@H]2CC[C@@H](Nc3nc4c(c(N(C)C)n3)CCCC4)CC2)c(C)c1 [compound 1793]	3 (Class 3 The value of percent of control at 10^−7 M was more than 60% or the value of IC50 was more than 200 nM.)
CN(C)c1nc(N[C@H]2CC[C@@H](NC(=O)Nc3cc(Cl)cc(Cl)c3)CC2)nc2c1CCCC2 [compound 1794]	3 (Class 3 The value of percent of control at 10^−7 M was more than 60% or the value of IC50 was more than 200 nM.)
CN(C)c1nc(N[C@H]2CC[C@@H](NC(=O)Nc3cccc(Cl)c3Cl)CC2)nc2c1CCCC2 [compound 1795]	2 (Class 2: The value of percent of control at 10^−7 M was from 40% to 60% or the value of IC′50 was from 50 nM to 200 nM.)
Cc1ccc(NC(=O)N[C@H]2CC[C@@H](Nc3nc4c(c(N(C)C)n3)CCCC4)CC2)cc1 [compound 1796]	2 (Class 2: The value of percent of control at 10^−7 M was from 40% to 60% or the value of IC′50 was from 50 nM to 200 nM.)
CC(C)c1cccc(C(C)C)c1NC(=O)N[C@H]1CC[C@@H](Nc2nc3c(c(N(C)C)n2)CCCC3)CC1 [compound 1797, N-(2,6-diisopropylphenyl)-N′-(cis-4-{[4-(dimethylamino)-5,6,7,8-tetrahydroquinazolin-2-yl]amino}cyclohexyl)urea]	2 (Class 2: The value of percent of control at 10^−7 M was from 40% to 60% or the value of IC′50 was from 50 nM to 200 nM.)
Cc1ccc([N+](=O)[O-])c(NC(=O)N[C@H]2CC[C@@H](Nc3nc4c(c(N(C)C)n3)CCCC4)CC2)c1C [compound 1798]	3 (Class 3 The value of percent of control at 10^−7 M was more than 60% or the value of IC50 was more than 200 nM.)
CN(C)c1nc(N[C@H]2CC[C@@H](NC(=O)Nc3c(Br)cc(F)cc3Br)CC2)nc2c1CCCC2 [compound 1799]	3 (Class 3 The value of percent of control at 10^−7 M was more than 60% or the value of IC50 was more than 200 nM.)
CN(C)c1nc(N[C@H]2CC[C@@H](NC(=O)Nc3c(Cl)cccc3Cl)CC2)nc2c1CCCC2 [compound 1800]	3 (Class 3 The value of percent of control at 10^−7 M was more than 60% or the value of IC50 was more than 200 nM.)
COc1ccc(C)cc1NC(=O)N[C@H]1CC[C@@H](Nc2nc3c(c(N(C)C)n2)CCCC3)CC1 [compound 1801]	3 (Class 3 The value of percent of control at 10^−7 M was more than 60% or the value of IC50 was more than 200 nM.)
Cc1cccc([N+](=O)[O-])c1NC(=O)N[C@H]1CC[C@@H](Nc2nc3c(c(N(C)C)n2)CCCC3)CC1 [compound 1802]	3 (Class 3 The value of percent of control at 10^−7 M was more than 60% or the value of IC50 was more than 200 nM.)
CN(C)c1nc(N[C@H]2CC[C@@H](NC(=O)Nc3ccc(F)c(F)c3)CC2)nc2c1CCCC2 [compound 1803]	3 (Class 3 The value of percent of control at 10^−7 M was more than 60% or the value of IC50 was more than 200 nM.)
CN(C)c1nc(N[C@H]2CC[C@@H](NC(=O)Nc3cc(F)cc(F)c3)CC2)nc2c1CCCC2 [compound 1804]	3 (Class 3 The value of percent of control at 10^−7 M was more than 60% or the value of IC50 was more than 200 nM.)
CN(C)c1nc(N[C@H]2CC[C@@H](NC(=O)Nc3ccc(F)c(Cl)c3)CC2)nc2c1CCCC2 [compound 1805]	3 (Class 3 The value of percent of control at 10^−7 M was more than 60% or the value of IC50 was more than 200 nM.)
CC(=O)c1cccc(NC(=O)N[C@H]2CC[C@@H](Nc3nc4c(c(N(C)C)n3)CCCC4)CC2)c1 [compound 1806]	3 (Class 3 The value of percent of control at 10^−7 M was more than 60% or the value of IC50 was more than 200 nM.)
CC(=O)c1ccc(NC(=O)N[C@H]2CC[C@@H](Nc3nc4c(c(N(C)C)n3)CCCC4)CC2)cc1 [compound 1808]	3 (Class 3 The value of percent of control at 10^−7 M was more than 60% or the value of IC50 was more than 200 nM.)
CN(C)c1nc(N[C@H]2CC[C@@H](NC(=O)NC(=O)c3ccccc3)CC2)nc2c1CCCC2 [compound 1809]	3 (Class 3 The value of percent of control at 10^−7 M was more than 60% or the value of IC50 was more than 200 nM.)
CN(C)c1nc(N[C@H]2CC[C@@H](NC(=O)NC(C)(C)C)CC2)nc2c1CCCC2 [compound 1810]	3 (Class 3 The value of percent of control at 10^−7 M was more than 60% or the value of IC50 was more than 200 nM.)
CN(C)c1nc(N[C@H]2CC[C@@H](NC(=O)Nc3cc(C(F)(F)F)cc(C(F)(F)F)c3)CC2)nc2c1CCCC2 [compound 1811]	3 (Class 3 The value of percent of control at 10^−7 M was more than 60% or the value of IC50 was more than 200 nM.)
CN(C)c1nc(N[C@H]2CC[C@@H](NC(=O)NCc3ccccc3)CC2)nc2c1CCCC2 [compound 1812]	3 (Class 3 The value of percent of control at 10^−7 M was more than 60% or the value of IC50 was more than 200 nM.)
CN(C)c1nc(N[C@H]2CC[C@@H](NC(=O)Nc3ccc(Br)cc3)CC2)nc2c1CCCC2 [compound 1813]	3 (Class 3 The value of percent of control at 10^−7 M was more than 60% or the value of IC50 was more than 200 nM.)
CN(C)c1nc(N[C@H]2CC[C@@H](NC(=O)Nc3cccc(Cl)c3)CC2)nc2c1CCCC2 [compound 1814]	3 (Class 3 The value of percent of control at 10^−7 M was more than 60% or the value of IC50 was more than 200 nM.)

Compound	class
CN(C)c1nc(N[C@H]2CC[C@@H](NC(=O)Nc3ccc(Cl)cc3)CC2)nc2c1CCCC2 [compound 1815]	3 (Class 3 The value of percent of control at 10^−7 M was more than 60% or the value of IC50 was more than 200 nM.)
CN(C)c1nc(N[C@H]2CC[C@@H](NC(=O)NC3CCCCC3)CC2)nc2c1CCCC2 [compound 1816]	3 (Class 3 The value of percent of control at 10^−7 M was more than 60% or the value of IC50 was more than 200 nM.)
CN(C)c1nc(N[C@H]2CC[C@@H](NC(=O)Nc3cccc(C#N)c3)CC2)nc2c1CCCC2 [compound 1817]	3 (Class 3 The value of percent of control at 10^−7 M was more than 60% or the value of IC50 was more than 200 nM.)
CN(C)c1nc(N[C@H]2CC[C@@H](NC(=O)Nc3ccc(Cl)c(Cl)c3)CC2)nc2c1CCCC2 [compound 1818]	3 (Class 3 The value of percent of control at 10^−7 M was more than 60% or the value of IC50 was more than 200 nM.)
CN(C)c1nc(N[C@H]2CC[C@@H](NC(=O)Nc3ccc(Cl)cc3Cl)CC2)nc2c1CCCC2 [compound 1819]	3 (Class 3 The value of percent of control at 10^−7 M was more than 60% or the value of IC50 was more than 200 nM.)
CN(C)c1nc(N[C@H]2CC[C@@H](NC(=O)Nc3c(F)cccc3F)CC2)nc2c1CCCC2 [compound 1820]	3 (Class 3 The value of percent of control at 10^−7 M was more than 60% or the value of IC50 was more than 200 nM.)
CN(C)c1nc(N[C@H]2CC[C@@H](NC(=O)Nc3cc(Cl)ccc3Cl)CC2)nc2c1CCCC2 [compound 1821]	3 (Class 3 The value of percent of control at 10^−7 M was more than 60% or the value of IC50 was more than 200 nM.)
CCOC(=O)CNC(=O)N[C@H]1CC[C@@H](Nc2nc3c(c(N(C)C)n2)CCCC3)CC1 [compound 1822]	3 (Class 3 The value of percent of control at 10^−7 M was more than 60% or the value of IC50 was more than 200 nM.)
CCOC(=O)c1ccc(NC(=O)N[C@H]2CC[C@@H](Nc3nc4c(c(N(C)C)n3)CCCC4)CC2)cc1 [compound 1823]	3 (Class 3 The value of percent of control at 10^−7 M was more than 60% or the value of IC50 was more than 200 nM.)
CCc1ccc(NC(=O)N[C@H]2CC[C@@H](Nc3nc4c(c(N(C)C)n3)CCCC4)CC2)cc1 [compound 1824]	3 (Class 3 The value of percent of control at 10^−7 M was more than 60% or the value of IC50 was more than 200 nM.)
CCNC(=O)N[C@H]1CC[C@@H](Nc2nc3c(c(N(C)C)n2)CCCC3)CC1 [compound 1825]	3 (Class 3 The value of percent of control at 10^−7 M was more than 60% or the value of IC50 was more than 200 nM.)
CN(C)c1nc(N[C@H]2CC[C@@H](NC(=O)Nc3ccc(F)c([N+](=O)[O-])c3)CC2)nc2c1CCCC2 [compound 1826]	3 (Class 3 The value of percent of control at 10^−7 M was more than 60% or the value of IC50 was more than 200 nM.)
CN(C)c1nc(N[C@H]2CC[C@@H](NC(=O)Nc3cccc(F)c3)CC2)nc2c1CCCC2 [compound 1827]	3 (Class 3 The value of percent of control at 10^−7 M was more than 60% or the value of IC50 was more than 200 nM.)
CN(C)c1nc(N[C@H]2CC[C@@H](NC(=O)Nc3ccccc3F)CC2)nc2c1CCCC2 [compound 1828]	3 (Class 3 The value of percent of control at 10^−7 M was more than 60% or the value of IC50 was more than 200 nM.)
CC(C)c1ccc(NC(=O)N[C@H]2CC[C@@H](Nc3nc4c(c(N(C)C)n3)CCCC4)CC2)cc1 [compound 1829]	3 (Class 3 The value of percent of control at 10^−7 M was more than 60% or the value of IC50 was more than 200 nM.)
CC(C)NC(=O)N[C@H]1CC[C@@H](Nc2nc3c(c(N(C)C)n2)CCCC3)CC1 [compound 1830]	3 (Class 3 The value of percent of control at 10^−7 M was more than 60% or the value of IC50 was more than 200 nM.)
COc1ccc(NC(=O)N[C@H]2CC[C@@H](Nc3nc4c(c(N(C)C)n3)CCCC4)CC2)cc1 [compound 1831]	3 (Class 3 The value of percent of control at 10^−7 M was more than 60% or the value of IC50 was more than 200 nM.)
Cc1ccc(NC(=O)N[C@H]2CC[C@@H](Nc3nc4c(c(N(C)C)n3)CCCC4)CC2)c([N+](=O)[O-])c1 [compound 1832]	3 (Class 3 The value of percent of control at 10^−7 M was more than 60% or the value of IC50 was more than 200 nM.)
COc1ccccc1NC(=O)N[C@H]1CC[C@@H](Nc2nc3c(c(N(C)C)n2)CCCC3)CC1 [compound 1833]	3 (Class 3 The value of percent of control at 10^−7 M was more than 60% or the value of IC50 was more than 200 nM.)
COc1cccc(NC(=O)N[C@H]2CC[C@@H](Nc3nc4c(c(N(C)C)n3)CCCC4)CC2)c1 [compound 1834]	3 (Class 3 The value of percent of control at 10^−7 M was more than 60% or the value of IC50 was more than 200 nM.)
COc1ccc(CNC(=O)N[C@H]2CC[C@@H](Nc3nc4c(c(N(C)C)n3)CCCC4)CC2)cc1 [compound 1835]	3 (Class 3 The value of percent of control at 10^−7 M was more than 60% or the value of IC50 was more than 200 nM.)
